# Where “and” joins values, the source holds several entries; their conditions need not be identical. Identical values can stand only once. ± gives the uncertainty stated by the source.
# Test: xn = mol fraction of the nth substance listed
smiles,measurement,setting,value
CC(C)C[C@H](N)C(=O)O + O,viscosity,"293.15 K, 100 kPa, x1 = 0.000274",1.013 ± 0.061 mPa·s
same,viscosity,"293.15 K, 100 kPa, x1 = 0.000645",1.038 ± 0.12 mPa·s
same,viscosity,"293.15 K, 100 kPa, x1 = 0.000947",1.055 ± 0.12 mPa·s
same,viscosity,"293.15 K, 100 kPa, x1 = 0.00132",1.076 ± 0.12 mPa·s
same,viscosity,"293.15 K, 100 kPa, x1 = 0.00136",1.04 ± 0.061 mPa·s
same,viscosity,"293.15 K, 100 kPa, x1 = 0.00153",1.044 ± 0.061 mPa·s
same,viscosity,"293.15 K, 100 kPa, x1 = 0.00162",1.093 ± 0.12 mPa·s
same,viscosity,"293.15 K, 100 kPa, x1 = 0.00172",1.048 ± 0.061 mPa·s
same,viscosity,"293.15 K, 100 kPa, x1 = 0.002001",1.114 ± 0.12 mPa·s
same,viscosity,"293.15 K, 100 kPa, x1 = 0.00234",1.133 ± 0.12 mPa·s
same,viscosity,"298.15 K, 100 kPa, x1 = 0.000274",0.9 ± 0.06 mPa·s
same,viscosity,"298.15 K, 100 kPa, x1 = 0.000292",0.8985 ± 0.12 mPa·s
same,viscosity,"298.15 K, 100 kPa, x1 = 0.000459",0.905 ± 0.06 mPa·s
same,viscosity,"298.15 K, 100 kPa, x1 = 0.000806",0.913 ± 0.06 mPa·s
same,viscosity,"298.15 K, 100 kPa, x1 = 0.000995",0.917 ± 0.06 mPa·s
same,viscosity,"298.15 K, 100 kPa, x1 = 0.00117",0.921 ± 0.06 mPa·s
same,viscosity,"298.15 K, 100 kPa, x1 = 0.00132",0.9262 ± 0.12 mPa·s
same,viscosity,"298.15 K, 100 kPa, x1 = 0.00136",0.925 ± 0.06 mPa·s
same,viscosity,"298.15 K, 100 kPa, x1 = 0.00153",0.929 ± 0.06 mPa·s
same,viscosity,"298.15 K, 100 kPa, x1 = 0.00162",0.9344 ± 0.12 mPa·s
same,viscosity,"298.15 K, 100 kPa, x1 = 0.00172",0.933 ± 0.061 mPa·s
same,viscosity,"298.15 K, 100 kPa, x1 = 0.002001",0.9447 ± 0.12 mPa·s
same,viscosity,"298.15 K, 100 kPa, x1 = 0.00234",0.9538 ± 0.12 mPa·s
same,viscosity,"303.15 K, 100 kPa, x1 = 0.000274",0.807 ± 0.06 mPa·s
same,viscosity,"303.15 K, 100 kPa, x1 = 0.000292",0.8043 ± 0.12 mPa·s
same,viscosity,"303.15 K, 100 kPa, x1 = 0.000459",0.811 ± 0.06 mPa·s
same,viscosity,"303.15 K, 100 kPa, x1 = 0.000632",0.815 ± 0.06 mPa·s
same,viscosity,"303.15 K, 100 kPa, x1 = 0.000645",0.8124 ± 0.12 mPa·s
same,viscosity,"303.15 K, 100 kPa, x1 = 0.000806",0.819 ± 0.06 mPa·s
same,viscosity,"303.15 K, 100 kPa, x1 = 0.000947",0.8194 ± 0.12 mPa·s
same,viscosity,"303.15 K, 100 kPa, x1 = 0.000995",0.823 ± 0.06 mPa·s
same,viscosity,"303.15 K, 100 kPa, x1 = 0.00117",0.826 ± 0.06 mPa·s
same,viscosity,"303.15 K, 100 kPa, x1 = 0.00132",0.828 ± 0.12 mPa·s
same,viscosity,"303.15 K, 100 kPa, x1 = 0.00136",0.83 ± 0.06 mPa·s
same,viscosity,"303.15 K, 100 kPa, x1 = 0.00153",0.834 ± 0.06 mPa·s
same,viscosity,"303.15 K, 100 kPa, x1 = 0.00162",0.8351 ± 0.12 mPa·s
same,viscosity,"303.15 K, 100 kPa, x1 = 0.00172",0.838 ± 0.06 mPa·s
same,viscosity,"303.15 K, 100 kPa, x1 = 0.002001",0.8439 ± 0.12 mPa·s
same,viscosity,"303.15 K, 100 kPa, x1 = 0.00234",0.8517 ± 0.12 mPa·s
same,viscosity,"303.15 K, 101 kPa, x1 = 0.0004",0.804 ± 0.007 mPa·s
same,viscosity,"303.15 K, 101 kPa, x1 = 0.0007",0.809 ± 0.007 mPa·s
same,viscosity,"303.15 K, 101 kPa, x1 = 0.001",0.817 ± 0.007 mPa·s and 0.827 ± 0.008 mPa·s
same,viscosity,"303.15 K, 101 kPa, x1 = 0.0018",0.834 ± 0.008 mPa·s
same,viscosity,"305.15 K, 101 kPa, x1 = 0.0003598",0.7908 ± 0.0051 mPa·s
same,viscosity,"305.15 K, 101 kPa, x1 = 0.0007199",0.7974 ± 0.0052 mPa·s
same,viscosity,"305.15 K, 101 kPa, x1 = 0.00108",0.8054 ± 0.0052 mPa·s
same,viscosity,"305.15 K, 101 kPa, x1 = 0.001439",0.8126 ± 0.0052 mPa·s
same,viscosity,"305.15 K, 101 kPa, x1 = 0.001798",0.8203 ± 0.0053 mPa·s
same,viscosity,"305.15 K, 101 kPa, x1 = 0.002157",0.8283 ± 0.0053 mPa·s
same,viscosity,"308.15 K, 100 kPa, x1 = 0.000274",0.729 ± 0.06 mPa·s
same,viscosity,"308.15 K, 100 kPa, x1 = 0.000292",0.7252 ± 0.12 mPa·s
same,viscosity,"308.15 K, 100 kPa, x1 = 0.000632",0.736 ± 0.06 mPa·s
same,viscosity,"308.15 K, 100 kPa, x1 = 0.000645",0.7323 ± 0.12 mPa·s
same,viscosity,"308.15 K, 100 kPa, x1 = 0.000806",0.74 ± 0.06 mPa·s
same,viscosity,"308.15 K, 100 kPa, x1 = 0.000947",0.7384 ± 0.12 mPa·s
same,viscosity,"308.15 K, 100 kPa, x1 = 0.000995",0.744 ± 0.06 mPa·s
same,viscosity,"308.15 K, 100 kPa, x1 = 0.00117",0.747 ± 0.06 mPa·s
same,viscosity,"308.15 K, 100 kPa, x1 = 0.00132",0.7458 ± 0.12 mPa·s
same,viscosity,"308.15 K, 100 kPa, x1 = 0.00153",0.755 ± 0.06 mPa·s
same,viscosity,"308.15 K, 100 kPa, x1 = 0.00162",0.752 ± 0.12 mPa·s
same,viscosity,"308.15 K, 100 kPa, x1 = 0.00172",0.758 ± 0.06 mPa·s
same,viscosity,"308.15 K, 100 kPa, x1 = 0.002001",0.7597 ± 0.12 mPa·s
same,viscosity,"308.15 K, 100 kPa, x1 = 0.00234",0.7665 ± 0.12 mPa·s
same,viscosity,"308.15 K, 101 kPa, x1 = 0.0007",0.731 ± 0.007 mPa·s
same,viscosity,"308.15 K, 101 kPa, x1 = 0.001",0.739 ± 0.007 mPa·s and 0.746 ± 0.007 mPa·s
same,viscosity,"308.15 K, 101 kPa, x1 = 0.0018",0.753 ± 0.007 mPa·s
same,viscosity,"310.15 K, 101 kPa, x1 = 0.0003598",0.709 ± 0.0047 mPa·s
same,viscosity,"310.15 K, 101 kPa, x1 = 0.0007199",0.7151 ± 0.0047 mPa·s
same,viscosity,"310.15 K, 101 kPa, x1 = 0.00108",0.7218 ± 0.0048 mPa·s
same,viscosity,"310.15 K, 101 kPa, x1 = 0.001439",0.7272 ± 0.0048 mPa·s
same,viscosity,"310.15 K, 101 kPa, x1 = 0.001798",0.7334 ± 0.0048 mPa·s
same,viscosity,"310.15 K, 101 kPa, x1 = 0.002157",0.7401 ± 0.0049 mPa·s
same,viscosity,"313.15 K, 100 kPa, x1 = 0.000274",0.663 ± 0.06 mPa·s
same,viscosity,"313.15 K, 100 kPa, x1 = 0.000292",0.6581 ± 0.12 mPa·s
same,viscosity,"313.15 K, 100 kPa, x1 = 0.000459",0.667 ± 0.06 mPa·s
same,viscosity,"313.15 K, 100 kPa, x1 = 0.000632",0.67 ± 0.06 mPa·s
same,viscosity,"313.15 K, 100 kPa, x1 = 0.000645",0.6643 ± 0.12 mPa·s
same,viscosity,"313.15 K, 100 kPa, x1 = 0.000806",0.674 ± 0.06 mPa·s
same,viscosity,"313.15 K, 100 kPa, x1 = 0.000947",0.6696 ± 0.12 mPa·s
same,viscosity,"313.15 K, 100 kPa, x1 = 0.00132",0.676 ± 0.12 mPa·s
same,viscosity,"313.15 K, 100 kPa, x1 = 0.00162",0.6814 ± 0.12 mPa·s
same,viscosity,"313.15 K, 100 kPa, x1 = 0.002001",0.688 ± 0.12 mPa·s
same,viscosity,"313.15 K, 100 kPa, x1 = 0.00234",0.694 ± 0.12 mPa·s
same,viscosity,"313.15 K, 101 kPa, x1 = 0.0004",0.658 ± 0.006 mPa·s
same,viscosity,"313.15 K, 101 kPa, x1 = 0.0007",0.663 ± 0.006 mPa·s
same,viscosity,"313.15 K, 101 kPa, x1 = 0.001",0.669 ± 0.006 mPa·s and 0.677 ± 0.006 mPa·s
same,viscosity,"313.15 K, 101 kPa, x1 = 0.0018",0.682 ± 0.006 mPa·s
same,viscosity,"315.15 K, 101 kPa, x1 = 0.0003598",0.6544 ± 0.0045 mPa·s
same,viscosity,"315.15 K, 101 kPa, x1 = 0.0007199",0.6599 ± 0.0045 mPa·s
same,viscosity,"315.15 K, 101 kPa, x1 = 0.00108",0.6653 ± 0.0045 mPa·s
same,viscosity,"315.15 K, 101 kPa, x1 = 0.001439",0.6699 ± 0.0045 mPa·s
same,viscosity,"315.15 K, 101 kPa, x1 = 0.001798",0.6752 ± 0.0046 mPa·s
same,viscosity,"315.15 K, 101 kPa, x1 = 0.002157",0.6803 ± 0.0046 mPa·s
same,viscosity,"318.15 K, 101 kPa, x1 = 0.0007",0.605 ± 0.006 mPa·s
same,viscosity,"318.15 K, 101 kPa, x1 = 0.001",0.611 ± 0.006 mPa·s and 0.618 ± 0.006 mPa·s
same,viscosity,"318.15 K, 101 kPa, x1 = 0.0018",0.622 ± 0.006 mPa·s

# Reference: the CheMixHub viscosity set
